Measurements reported in patent US4363923A, “4-Halgeno-oxetan-2-ones and process for their production” (Ciba-Geigy Corporation, priority 1980, dated 1982).
Converted amounts (≈) assume the structure as drawn.

Columns and labels:
Assay type in all cases: cell-based
Phormidium foveolarum = experiment: Test demonstrating algistatic activity; settings: Nodosilinea foveolarum, 504 h, 3 week incubation, shaking water bath, read-out: Minimum inhibitory Concentration, MIC
Experimental: (§1) The organisms against which the compounds are to be tested are grown in an Erlenmeyer flask in a nutrient medium under sterile conditions on a shaking water bath at 18° C. with exposure (14 hours in light alternating with 10 hours in the dark).
(§2) Tests are carried out against three algae, namely the blue algae
(a) Phormidium foveolarum (A) which lives in polluted water or moist earth and forms trichomes;
(§3) The composition of the medium is as follows (according to Algae broth, Difco Laboratories):
(§4) dissolved in 1 liter of distilled water. The nutrient medium treated with the biocide is innoculated with the respective algae suspension such that a final dilution of 1/100 (algae divided with a stirrer) is attained. Evaluation is made after a 3 week incubation in the Erlenmeyer flask on a shaking water bath.

Ulothrix subtilissima = experiment: Test demonstrating algistatic activity; settings: Klebsormidium subtilissimum, 504 h, 3 week incubation, shaking water bath, read-out: Minimum inhibitory Concentration, MIC
Experimental: as §1, §2
(b) the simple filament-forming Ulothrix subtilissima (B) generally found at colder times of the year in rapidly flowing water;
as §3, §4

[1] = system: mixed culture of slime-forming bacteria; experiment: Bactericidal test on a mixed culture of slime-forming bacteria in saline; settings: 30 ppm, start 10^7 organisms/ml in saline
Experimental: A mixed culture of slime-forming bacteria including Pseudomonas aeruginosa, Enterobacter aerogenes, Escherichia coli, Proteus vulgaris, Bacillus mycoides and Staphylococcus aureus in saline containing 10^7 organisms/ml was treated with 30 ppm of the product of Example 2.

Tribonema aequale = experiment: Test demonstrating algistatic activity; settings: 504 h, 3 week incubation, shaking water bath, read-out: Minimum inhibitory Concentration, MIC
Experimental: as §1, §2
and the algae with brown chromatophors
(c) the widespread, unbranched filament-forming Tribonema aequale (C) occurring in bodies of water especially in the spring at low temperature or in the autumn, even in mild winters.
as §3, §4

O=C1CC(Cl)(CC(Cl)(Cl)Cl)O1 (centres unmarked) [Example 2, 4-chloro-4-(2,2,2-trichloroethyl)oxetan-2-one] was tested, and the MIC (Phormidium foveolarum) was 30 µg/mL (≈ 126 µM), the MIC (Ulothrix subtilissima) was 30 µg/mL (≈ 126 µM) and the “number of organisms reduced to” value ([1]; after one hour) was 10^2 organisms/ml. The killing of bacteria ([1]; within 24 hours) was “all the bacteria had been killed” and the MIC (Tribonema aequale) was 30 µg/mL (≈ 126 µM).
